Positions count from the first letter of the chain named.
Experiments:
[1] = test system: U87MG pLVX-IDH2 R140Q-neo cells; assay: U87MG pLVX-IDH2 R140Q-neo cell based assay, 2-HG in media by LC-MS at 48 hours; settings: Homo sapiens, U-87 MG
In short: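 U87MG cells stably expressing IDH2 R140Q were seeded overnight, then exposed to compound at 0.2% final DMSO at 37 °C, 5% CO2. 2-HG in the medium was quantified by LC-MS at 48 h. Growth inhibition was read by CellTiter-Glo luminescence at 72 h.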

IDH2 R140Q = molecular target: T1, IDH2 R140Q (Homo sapiens, UniProt P48735, R140Q); assay: IDH2 R140Q enzymatic assay (cofactor depletion, similar format); format: biochemical; settings: read-out: Enz R140Q
T1 sequence (P48735 40-452 R140Q): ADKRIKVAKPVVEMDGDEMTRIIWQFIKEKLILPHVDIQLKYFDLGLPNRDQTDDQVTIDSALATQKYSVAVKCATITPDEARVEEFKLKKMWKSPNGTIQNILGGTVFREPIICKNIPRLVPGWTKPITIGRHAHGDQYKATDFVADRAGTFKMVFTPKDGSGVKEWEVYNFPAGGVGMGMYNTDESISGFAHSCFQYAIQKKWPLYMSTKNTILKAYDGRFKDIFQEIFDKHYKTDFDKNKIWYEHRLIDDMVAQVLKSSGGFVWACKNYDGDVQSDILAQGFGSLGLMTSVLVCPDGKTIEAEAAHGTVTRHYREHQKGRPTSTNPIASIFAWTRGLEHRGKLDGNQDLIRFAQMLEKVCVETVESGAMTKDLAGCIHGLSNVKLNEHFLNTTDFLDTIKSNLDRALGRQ

IDH2 R172K = molecular target: T2, IDH2 R172K (Homo sapiens, UniProt P48735, R172K); assay: IDH2 R172K enzymatic assay (NADPH cofactor depletion, diaphorase/resazurin readout); format: biochemical; settings: read-out: Enz R172K
T2 sequence (P48735 40-452 R172K): T1 sequence (P48735 40-452 R140Q) with Q101R, R133K
In short: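 Test compounds are incubated with the mutant enzyme for one hour at ambient temperature. A substrate mix of 50 μM NADPH plus 6.3 mM α-KG initiates turnover, which proceeds for one hour. Diaphorase and resazurin then halt the reaction by depleting the cofactor and convert the remaining NADPH into a fluorescent signal.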

SMILES	IC50 [1] [nM]	IC50 (IDH2 R140Q) [nM]	IC50 (IDH2 R172K) [nM]
CC(C)Nc1nc(Nc2cc(F)cc(F)c2)nc(-c2cccc(C(C)(F)F)n2)n1 [Compound 583, 6-(6-(1,1-difluoroethyl)pyridin-2-yl)-N2-(3,5-difluorophenyl)-N4-isopropyl-1,3,5-triazine-2,4-diamine]	< 100	100 to 1000	< 100
CC(F)(F)c1cccc(-c2nc(NCC3CC3)nc(Nc3cc(F)cc(F)c3)n2)n1 [Compound 584, N2-(cyclopropylmethyl)-6-(6-(1,1-difluoroethyl)pyridin-2-yl)-N4-(3,5-difluorophenyl)-1,3,5-triazine-2,4-diamine]	< 100	100 to 1000	< 100
CC(C)(C)Nc1nc(Nc2cc(F)cc(F)c2)nc(-c2cccc(C(C)(F)F)n2)n1 [Compound 585, N2-(tert-butyl)-6-(6-(1,1-difluoroethyl)pyridin-2-yl)-N4-(3,5-difluorophenyl)-1,3,5-triazine-2,4-diamine]	< 100	100 to 1000	< 100
FC(F)(F)c1cc(Nc2nc(NC3CCOCC3)nc(-c3cccc(C(F)(F)F)n3)n2)ccn1 [Compound 587, N2-(tetrahydro-2H-pyran-4-yl)-6-(6-(trifluoromethyl)pyridin-2-yl)-N4-(2-(trifluoromethyl)pyridin-4-yl)-1,3,5-triazine-2,4-diamine]	< 100	100 to 1000	< 100
OC1CCCC1Nc1nc(Nc2ccnc(C(F)(F)F)c2)nc(-c2cccc(C(F)(F)F)n2)n1 (stereo not drawn) [Compound 588, 2-((4-(6-(trifluoromethyl)pyridin-2-yl)-6-((2-(trifluoromethyl)pyridin-4-yl)amino)-1,3,5-triazin-2-yl)amino)cyclopentanol]	< 100	100 to 1000	100 to 1000
CC(C)(C)Nc1nc(Nc2cc(F)cc(S(C)(=O)=O)c2)nc(-c2cccc(C(F)(F)F)n2)n1 [Compound 592, N-tert-Butyl-N′-(3-fluoro-5-methanesulfonyl-phenyl)-6-(6-trifluoromethyl-pyridin-2-yl)-[1,3,5]triazine-2,4-diamine]	< 100	100 to 1000	100 to 1000
CS(=O)(=O)c1cc(F)cc(Nc2nc(NCC3CC3)nc(-c3cccc(C(F)(F)F)n3)n2)c1 [Compound 593, N-Cyclopropylmethyl-N′-(3-fluoro-5-methanesulfonyl-phenyl)-6-(6-trifluoromethyl-pyridin-2-yl)-[1,3,5]triazine-2,4-diamine]	< 100	100 to 1000	< 100
CC(C)(O)CNc1nc(Nc2ccnc(C(F)(F)F)c2)nc(-c2cccc(C(C)(F)F)n2)n1 [Compound 594, 1-((4-(6-(1,1-difluoroethyl)pyridin-2-yl)-6-((2-(trifluoromethyl)pyridin-4-yl)amino)-1,3,5-triazin-2-yl)amino)-2-methylpropan-2-ol]	< 100	100 to 1000	100 to 1000
CC(F)(F)c1cccc(-c2nc(NCC3CC3)nc(Nc3ccnc(C(F)(F)F)c3)n2)n1 [Compound 595, N2-(cyclopropylmethyl)-6-(6-(1,1-difluoroethyl)pyridin-2-yl)-N4-(2-(trifluoromethyl)pyridin-4-yl)-1,3,5-triazine-2,4-diamine]	< 100	100 to 1000	< 100
CC(C)(C)Nc1nc(Nc2ccnc(C(C)(F)F)c2)nc(-c2cccc(C(C)(F)F)n2)n1 [Compound 596, N2-(tert-butyl)-6-(6-(1,1-difluoroethyl)pyridin-2-yl)-N4-(2-(1,1-difluoroethyl)pyridin-4-yl)-1,3,5-triazine-2,4-diamine]	< 100	100 to 1000	< 100
FC(F)(F)c1cc(Nc2nc(NCC3CC3)nc(-c3cccc(C(F)(F)F)n3)n2)ccn1 [Compound 597, N2-(cyclopropylmethyl)-6-(6-(trifluoromethyl)pyridin-2-yl)-N4-(2-(trifluoromethyl)pyridin-4-yl)-1,3,5-triazine-2,4-diamine]	< 100	100 to 1000	< 100
Fc1cc(F)cc(Nc2nc(NCC3CC3)nc(-c3cccc(C(F)(F)F)n3)n2)c1 [Compound 598, N2-(cyclopropylmethyl)-N4-(3,5-difluorophenyl)-6-(6-(trifluoromethyl)pyridin-2-yl)-1,3,5-triazine-2,4-diamine]	< 100	100 to 1000	< 100

More lines, now with the values ahead:

IC50 [1] [nM]	IC50 (IDH2 R140Q) [nM]	IC50 (IDH2 R172K) [nM]	SMILES
< 100	100 to 1000	< 100	CS(=O)(=O)c1cc(Cl)cc(Nc2nc(NCC3CC3)nc(-c3cccc(C(F)(F)F)n3)n2)c1 [Compound 599, N2-(3-chloro-5-(methylsulfonyl)phenyl)-N4-(cyclopropylmethyl)-6-(6-(trifluoromethyl)pyridin-2-yl)-1,3,5-triazine-2,4-diamine]
< 100	100 to 1000	< 100	CC(C)(C)Nc1nc(Nc2cc(Cl)cc(S(C)(=O)=O)c2)nc(-c2cccc(C(F)(F)F)n2)n1 [Compound 600, N2-(tert-butyl)-N4-(3-chloro-5-(methylsulfonyl)phenyl)-6-(6-(trifluoromethyl)pyridin-2-yl)-1,3,5-triazine-2,4-diamine]
< 100	100 to 1000	< 100	CC(C)(C)Nc1nc(Nc2cc(F)cc(F)c2)nc(-c2cccc(C(F)(F)F)n2)n1 [Compound 601, N2-(tert-butyl)-N4-(3,5-difluorophenyl)-6-(6-(trifluoromethyl)pyridin-2-yl)-1,3,5-triazine-2,4-diamine]
< 100	100 to 1000	< 100	CC(C)(C)Nc1nc(Nc2ccnc(C(F)(F)F)c2)nc(-c2cccc(C(F)(F)F)n2)n1 [Compound 602, N2-(tert-butyl)-6-(6-(trifluoromethyl)pyridin-2-yl)-N4-(2-(trifluoromethyl)pyridin-4-yl)-1,3,5-triazine-2,4-diamine]
< 100	100 to 1000	< 100	CC(C)Nc1nc(Nc2cc(F)cc(F)c2)nc(-c2cccc(C(F)(F)F)n2)n1 [Compound 603, N2-(3,5-difluorophenyl)-N4-isopropyl-6-(6-(trifluoromethyl)pyridin-2-yl)-1,3,5-triazine-2,4-diamine]
< 100	100 to 1000	< 100	CC(F)(F)c1cc(Nc2nc(NCC3CC3)nc(-c3cccc(C(F)(F)F)n3)n2)ccn1 [Compound 604, N2-(cyclopropylmethyl)-N4-(2-(1,1-difluoroethyl)pyridin-4-yl)-6-(6-(trifluoromethyl)pyridin-2-yl)-1,3,5-triazine-2,4-diamine]
< 100	100 to 1000	100 to 1000	CC(C)(O)CNc1nc(Nc2ccnc(C(C)(F)F)c2)nc(-c2cccc(C(C)(F)F)n2)n1 [Compound 605, 1-((4-(6-(1,1-difluoroethyl)pyridin-2-yl)-6-((2-(1,1-difluoroethyl)pyridin-4-yl)amino)-1,3,5-triazin-2-yl)amino)-2-methylpropan-2-ol]
< 100	100 to 1000	< 100	CC(C)(C)Nc1nc(Nc2ccnc(C3(C#N)CC3)c2)nc(-c2cccc(C(C)(F)F)n2)n1 [Compound 606, 1-(4-((4-(tert-butylamino)-6-(6-(1,1-difluoroethyl)pyridin-2-yl)-1,3,5-triazin-2-yl)amino)pyridin-2-yl)cyclopropanecarbonitrile]
< 100	100 to 1000	100 to 1000	CS(=O)(=O)c1cccc(Nc2nc(NCC3CC3)nc(-c3cccc(C(F)(F)F)n3)n2)c1 [Compound 607, N2-(cyclopropylmethyl)-N4-(3-(methylsulfonyl)phenyl)-6-(6-(trifluoromethyl)pyridin-2-yl)-1,3,5-triazine-2,4-diamine]
< 100	100 to 1000	< 100	CC(C)(C)Nc1nc(Nc2ccnc(C3(C#N)CC3)c2)nc(-c2cccc(C(F)(F)F)n2)n1 [Compound 608, 1-(4-((4-(tert-butylamino)-6-(6-(trifluoromethyl)pyridin-2-yl)-1,3,5-triazin-2-yl)amino)pyridin-2-yl)cyclopropanecarbonitrile]
< 100	100 to 1000	< 100	CC(F)(F)c1cccc(-c2nc(NCC3CC3)nc(Nc3cc(Cl)cc(S(C)(=O)=O)c3)n2)n1 [Compound 609, N2-(3-chloro-5-(methylsulfonyl)phenyl)-N4-(cyclopropylmethyl)-6-(6-(1,1-difluoroethyl)pyridin-2-yl)-1,3,5-triazine-2,4-diamine]

— patent publication US9512107B2, “Therapeutically active compositions and their methods of use” (Agios Pharmaceuticals, Inc., priority 2012, dated 2016)
